Measurements published in US5239110A, “Phenylcyclohexanol derivatives as agents for treating CNS disorders” (Sterling Winthrop, Inc., priority 1992, dated 1993).

Test system: sigma receptors
Assay: sigma receptor binding, [3H]di(2-tolyl)guanidine (DTG) assay
Design: species or system guinea pig (male Hartley), brain tissue
Conditions: [3H]DTG approx. 4 nM, 25° C., 90 min, guinea pig brain membranes; for Ki: pH 7.4
Description: Brain tissue was prepared from male Hartley guinea pigs (Hazelton Labs, Denver, PA) which were anesthetized with CO2 and sacrificed by decapitation. All animal care and use procedures were in accord with the "Guide for the Care and Use of Laboratory Animals" (NIH Publ. No. 86-23, 20 1985). Homogenization was performed in 10 volumes (wt/vol) of 0.32 M sucrose with a Brinkmann Polytron at setting 5, 30 sec. The homogenate was centrifuged at 900×g for 10 min at 4° C., and the supernatant was collected and centrifuged at 22,000×g for 20 min at 4° C. The pellet was resuspended in 10 volumes of Tris-HCl buffer (50 mM, pH 7.4), incubated at 37° C. for 30 min and centrifuged at 22,000×g for 20 min at 4° C. Following this, the pellet was resuspended in Tris buffer and frozen in 5-10 mL aliquots corresponding to a tissue concentration of 100 mg/mL at -70° C. Binding characteristics of the membranes were stable for at least one month when stored at -70° C.
On the day of the assay, membrane aliquots were thawed, resuspended in fresh Tris buffer and stored on ice until use. Each assay tube contained 100 μL of [3H](+)pentazocine at a final concentration of approximately 0.5 nM, [3H]di(2-tolyl)guanidine (DTG) at a final concentration of approximately 4 nM, 100 μL of various concentrations of the compounds of interest, 500 μL of the tissue suspension and 300 μL of buffer to a final assay volume of 1 mL and a final tissue concentration of approximately 8 mg/tube, corresponding to approximately 0.15 mg protein/tube. Nonspecific binding was defined by addition of a final concentration of 1 μM haloperidol to blank tubes for [^3 H]+pentazocine assay or by addition of a final concentration of 10 μM haloperidol to blank tubes for [^3 H]DTG assay. All tubes were incubated at 37° C. for 150 minutes ([^3 H]+pentazocine) or at 25° C. for 90 min ([3H]DTG) before termination of the reaction by filtration over Whatman GF/B glass fiber filters that were presoaked in a solution of 0.5% polyethyleneimine for at least 1 hr prior to use. Filters were washed with three 4 mL volumes of cold Tris-HCl buffer.
Following addition of scintillation cocktail, samples were allowed to equilibrate for at least 4 hr. The amount of bound radioactivity was determined by liquid scintillation spectrometry using a Beckman LS 5000 TA liquid scintillation counter with an efficiency for tritium of approximately 60%.
Data obtained on the compounds in the di(2-tolyl)guanidine (DTG) and d-pentazocine (+pent) assays, expressed as a Ki value in nM or % inhibition at 10 nM, are as follows: […]

Structure (SMILES) | DTG % inhib (10 nM) (at 10 nM) [%] | Ki [µM]
CN(C)C1CCC(O)(c2ccccc2)CC1 (stereo not shown) [Example 1, 4-(Dimethylamino)-1-phenylcyclohexanol] | 61 | –
CC(=O)O[C@]1(c2ccccc2)CC[C@H](N(C)C)CC1 [Example 2, cis-4-(dimethylamino)-1-phenylcyclohexylacetate] | – | 5
CCC(=O)O[C@]1(c2ccccc2)CC[C@H](N(C)C)CC1 [Example 3, cis-4-(dimethylamino)-1-phenylcyclohexyl propionate] | – | 0.288
CCC(=O)O[C@]1(c2ccccc2)CC[C@@H](N(C)C)CC1 [Example 4, trans-4(dimethylamino)-1-phenylcyclohexyl propionate] | – | 4.08
